Values of other authors, collected in patent US9522161B2, “Performance enhancing composition and method of delivering nutrients” (Advanced Bio Development, Inc., priority 2010, dated 2016).
“Also recorded” adds a separate entry of the source.

What was measured:
[1] = not given; remark: listed apart in the source
[2] = tested on: muscle cells
[3] = tested on: mice that have a hypoinsulinemic type of diabetes; settings: mice with hypoinsulinemic type of diabetes
[4] = not given; remark: listed apart in the source
[5] = pilot studies and human trials
[6] = taken orally
[7] = not given; remark: listed apart in the source
[8] = humans, chronic high-intensity exercise, ribose supplementation
[9] = tested on: muscle; settings: ribose supplementation in rats, depending on muscle fiber type
[10] = consumed orally, within two hours

For `COC1=C(OC)C(=O)C(C/C=C(\C)CC/C=C(\C)CC/C=C(\C)CC/C=C(\C)CC/C=C(\C)CC/C=C(\C)CC/C=C(\C)CC/C=C(\C)CC/C=C(\C)CCC=C(C)C)=C(C)C1=O` [CoQ10, Coenzyme Q10], the “increase in plasma concentrations” value (dosages of 90 to 150 mg/day) is listed as 180%, the “uptake of CoQ10 into the blood, share of the dose administered” value (in vivo) is listed as 5 to 10% and the “safety in cardiovascular-related clinical trials” value ([1]; 2,152 patients, 100 to 200 mg per day) is listed as “safe, without any reports of toxicity or drug interactions”. The “share of users with gastrointestinal side effects” value ([1]; nausea, vomiting, diarrhea, appetite suppression, heartburn, epigastric discomfort) was “Less than one” and the “dosing level shown to be safe and well tolerated” value ([1]; over 8 months) was ≤ 3,000 mg per day.

In the case of `CO[C@H]1[C@H](O)[C@@H](O)[C@@H](O)[C@H](O)[C@@H]1O` [Pinitol], the “stimulation of glucose uptake in muscle cells” value [2] is given as 25-80%.

In the case of `CO[C@H]1[C@H](O)[C@@H](O)[C@@H](O)[C@H](O)[C@@H]1O` [D-pinitol], the insulin-like effect [3] is listed as “acute and chronic insulin-like effect”.

In the case of `Cn1c(=O)c2c(ncn2C)n(C)c1=O` [Caffeine], the “time until elevated levels appear in the bloodstream” value ([4]; after consumption) is listed as 15 to 45 min, the “time of peak concentrations post ingestion” value ([4]; post ingestion) is listed as “one” and the “decrease of circulating concentrations” value ([4]; within three to six hours of consumption) is listed as 50 to 75%.

For `Nc1ncnc2c1ncn2[C@@H]1O[C@H](COP(=O)(O)OP(=O)([O-])OP(=O)([O-])O)[C@@H](O)[C@H]1O.[Na+].[Na+]` [ATP disodium, adenosine triphosphate (ATP) disodium], the adverse side effects [5] is listed as “no adverse side effects have been observed” and the “duration of measurable increase in circulating ATP levels” value [6] is listed as “at least six”.

In the case of `O=C[C@H](O)[C@H](O)[C@H](O)CO` [Ribose], the known side effects ([7]; doses of 10 grams or more on an empty stomach) is listed as “transient hypoglycemia; also recorded: gastrointestinal discomfort, including loose stools and diarrhea”, the “ribose level that can be safely ingested” value ([7]; in vivo) is listed as no more than 15 g per day and the “time to return TAN and ATP levels to baseline” value [8] is listed as 65 to 72 h. The “increase in hypoxanthine salvage” value [9] was “six- to eight-fold”, the “increase in nucleotide salvage” value [9] was “three- to six-fold” and the “fraction of ribose absorbed in the intestines” value [10] was 88-100%.
